Measurements: patent publication US20250326772A1, “MRGPRX2 ANTAGONISTS, PHARMACEUTICAL COMPOSITION INCLUDING MRGPRX2 ANTAGONIST, AND METHOD OF TREATING MRGPRX2-MEDIATED DISEASE OR DISORDER” (KYORIN PHARMACEUTICAL CO., LTD., priority 2024, published 2025)

Assays:
[1] = test system: humanized mice (NOG-hGM-CSF/hIL-3 Tg mice); test: Evans blue vascular permeability assay ((R)-Zinc3573-induced, ear); format: in vivo; conditions: 10 mg/kg orally, 30 min before intradermal (R)-Zinc3573 3 μM into the ear; Evans blue dye; mean and standard error of mean
Description: Experimental Example 2: Evans Blue Vascular Permeability Assay
Twenty-five to twenty-six-week-old humanized mice (NOG-hGM-CSF/hIL-3 Tg mice at 17-18 weeks after transplantation of human umbilical cord blood-derived CD34+ cells; Central Institute for Experimental Animals) were anesthetized with isoflurane and injected intravenously with 200 μL of 0.5% Evans blue (cat. no. 056-04061; FUJIFILM Wako Pure Chemical Corporation). Subsequently, vehicle (0.5w/v % Methyl Cellulose) or 10 mg/kg of EX.381 were orally administered. After 30 minutes, animals were anesthetized with isoflurane and injected intradermally with 10 μL of (R)-Zinc3573 ((R)-Zinc; 3 μM, cat. no. SML1699; Sigma-Aldrich) into the right ear or with saline (0.1% DMSO) into the left ear as a control. Fifteen minutes after intradermal injection, animals were sacrificed and the ears were collected in 1.5 mL tubes. Evans blue dye was extracted from the tissue by adding 150 μL of N, N-dimethyl formamide (cat. no. 04096-34; nacalai tesque) for 12 hours at 55° C. […] The plate was read at 620 nm and 740 nm on a plate reader and the Evans blue dye concentration in each sample was determined by a standard curve using corrected absorbance (corrected absorbance=A620-A740). […] Data is expressed as mean and standard error of mean. […]

[2] = molecular target: T1, MRGPRX2 (Homo sapiens, UniProt Q96LB1); test: MRGPRX2 reporter cell assay (NFAT-RE luciferase, Substance P stimulation); format: cell-based; conditions: U2OS cells stably transfected with MRGPRX2 and NFAT-RE luciferase reporter; Substance P at EC80; class symbols
T1 sequence (Q96LB1 1-330): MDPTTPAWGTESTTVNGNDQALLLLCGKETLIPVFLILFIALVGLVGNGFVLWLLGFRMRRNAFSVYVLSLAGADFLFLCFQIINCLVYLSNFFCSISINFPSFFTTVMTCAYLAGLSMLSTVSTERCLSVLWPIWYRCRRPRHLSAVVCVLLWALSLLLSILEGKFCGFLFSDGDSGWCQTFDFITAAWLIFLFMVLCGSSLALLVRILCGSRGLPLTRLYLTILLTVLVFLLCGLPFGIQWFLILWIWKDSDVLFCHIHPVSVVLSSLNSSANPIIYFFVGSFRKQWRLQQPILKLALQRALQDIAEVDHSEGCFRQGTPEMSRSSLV
In short: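 U2OS cells stably expressing MRGPRX2 and an NFAT-RE luc2P reporter, pre-incubated 30 min at 37° C with compound (0.5% DMSO), then stimulated with Substance P at EC80 for 6 h. Luminescence after ONE-GLO; percent inhibition fitted by four-parameter logistic to IC50.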

SMILES	Inhibition % [1]	IC50 [2]
[2H]C([2H])([2H])Oc1ccc(C#N)c(-c2c(-c3cn(C)nc3C(F)F)[nH]c3ncccc23)c1 [EX. 381]	76.1 ± 12.1%	< 10 nM
Cc1nn2c(c1-c1[nH]c3ncccc3c1-c1cccnc1OC(F)F)OC[C@@H](NC(=O)C1CC1)C2 [EX. 594, (S)—N-(3-(3-(2-(difluoromethoxy)pyridin-3-yl)-1H-pyrrolo[2,3-b]pyridin-2-yl)-2-methyl-6,7-dihydro-5H-pyrazolo[5,1-b] [1,3]oxazin-6-yl) cyclopropanecarboxamide]	–	< 10 nM
C[C@H](O)CN(C)C(=O)N[C@@H]1COc2c(-c3[nH]c4ncccc4c3-c3cn(C)nc3OC(F)F)c(C(F)F)nn2C1 [EX. 595, 3-((S)-3-(3-(3-(difluoromethoxy)-1-methyl-1H-pyrazol-4-yl)-1H-pyrrolo[2,3-b]pyridin-2-yl)-2-(difluoromethyl)-6,7-dihydro-5H-pyrazolo[5,1-b] [1,3]oxazin-6-yl)-1-((S)-2-hydroxypropyl)-1-methylurea]	–	< 10 nM
